Where two headings read alike, the source gives them in different places.
What was measured:
adenosine deaminase = test: Adenosine deaminase assay (deamination of nucleosides); type: in vitro ADME
Description: In order to determine if these 6-substituted compounds are converted to G analogs by the enzyme adenosine deaminase, a series of enzyme kinetics experiments were undertaken.
To determine the propensity for deamination of the APN nucleosides by adenosine deaminase, nucleoside compounds were incubated with the commercially available purified enzyme, and the reaction was followed spectrophotometrically. Reaction conditions were 50 mM potassium phosphate, pH 7.4, with 50 μM APN nucleoside in 0.5 mL at 25° C. Reaction time was 7 minutes with 0.002 units of enzyme and 120 minutes with 0.2 units of enzyme. (The unit definition of adenosine deaminase is one unit will deaminate 1.0 μmol of adenosine to inosine per minute at pH 7.5 at 25° C.) Deoxyadenosine was the positive control which was 59% deaminated under the given conditions in 7 minutes with 0.002 units of enzyme. Deoxyguanosine was the negative control. Optical density was measured at 265 nm or 285 nm. The difference in optical density between the beginning and the end of the experiment was divided by the extinction coefficient then multiplied by the volume of the reaction to determine the number of mols of substrate transformed into product. Mols of product were divided by mols of substrate equivalent to a 100% complete reaction then multiplied by 100 to obtain percent deamination. The limit of detection was 0.001 optical density units.

PBM cells [1] = details: human, 4 h, 50 μM
HIV-1/LAI = test: Anti-HIV-1 assay in PBM cells; type: cell-based
Description: Stock solutions (20-40 mM) of the compounds were prepared in sterile DMSO and then diluted to the desired concentration in growth medium. Cells were infected with the prototype HIV-1LAI at a multiplicity of infection of 0.01. Virus obtained from the cell supernatant was quantified on day 6 after infection by a reverse transcriptase assay using (rA)n·(dT)12-18 as template-primer. […] The antiviral EC50 and EC90 were obtained from the concentration-response curve using the median effective method described previously (see Chou T.-C. & Talalay P. Adv. Enzyme Regul. 1984, 22, 27-55; Belen'kii M. S. & Schinazi R. F. Antiviral Res. 1994, 25, 1-11).

HIV-2/pROD10 = test: HIV-2 drug susceptibility in PBM cells; type: cell-based; details: Human immunodeficiency virus 2, PBMC
HBV = test: Anti-HBV assay (AD-38 cell line); type: cell-based; details: Hepatitis B virus
Description: The anti-HBV activity of the compounds was determined by treating the AD-38 cell line carrying wild type HBV under the control of tetracycline (see Ladner S. K., Otto M. J., Barker C. S., Zaifert K., Wang G. H., Guo J. T., Seeger C. & King R. W. Antimicrob. Agents Chemother. 1997, 41, 1715-20). Removal of tetracycline from the medium [Tet (−)] results in the production of HBV. The levels of HBV in the culture supernatant fluids from cells treated with the compounds were compared with that of the untreated controls. Control cultures with tetracycline [Tet (+)] were also maintained to determine the basal levels of HBV expression.

PBM cells [2] = test: Cytotoxicity assay in PBM cells; type: cell-based, human
CEM cells = test: Cytotoxicity assay in CEM cells; type: cell-based, human
Vero cells = test: Cytotoxicity assay in Vero cells; type: cell-based
HCV Replicon RNA = test: HCV Replicon Assay (Huh 7 Clone B cells); type: cell-based; details: tested at 10 μM, five days
From the text: (§1) Agents Chemother. […] K., Otto, M. J., Schinazi, R. F. “Antiviral activities and cellular toxicities of modified 2′,3′-dideoxy-2′,3′-didehydrocytidine analogs” Antimicrob. Agents Chemother. 2002, 46, 3854-60. • ^cHSV-1 drug susceptibility assay was done as previously described in: Schinazi, R. F., Peters, J., Williams, C. C., Chance, D., Nahmias, A. J. “Effect of combinations of acyclovir with vidarabine or its 5′-monophosphate on herpes simplex virus in cell culture and in mice.” Antimicrob. Agents Chemother. 1982, 22, 499-507. • ^dHCV Replicon Assay^1: Huh 7 Clone B cells containing HCV Replicon RNA were seeded in a 96-well plate at 5000 cells/well, and the compounds were tested at 10 μM in triplicate immediately after seeding. Following five days incubation (37° C., 5% CO2), total cellular RNA was isolated by using versaGene RNA purification kit from Gentra. Replicon RNA and an internal control (TaqMan rRNA control reagents, Applied Biosystems) were amplified in a single step multiplex Real Time RT-PCR Assay. The antiviral effectiveness of the compounds was calculated by subtracting the threshold RT-PCR cycle of the test compound from the threshold RT-PCR cycle of the no-drug control (ΔCtHCV). A ΔCt of 3.3 equals a 1-log reduction (equal to 90% less starting material) in Replicon RNA levels. The cytotoxicity of the compounds was also calculated by using the ΔCt rRNA values. 77 (2′-Me-C) was used as the control. To determine EC90 and IC50 values^2, ΔCt: values were first converted into fraction of starting material^3 and then were used to calculate the % inhibition.

HSV-1 = HSV-1 drug susceptibility assay; type: cell-based
From the text: as §1

[3] = Human immunodeficiency virus 1, PBMC, PBM cells, read-out: HIV-1/LAI (PBM) EC50
[4] = Human immunodeficiency virus 1, PBMC, PBM cells, read-out: HIV-1/LAI (PBM) EC90
[5] = Chlorocebus sabaeus, Vero, read-out: Vero IC50
[6] = Table 5, read-out: Toxicity IC50 Vero
[7] = 50 μM nucleoside, pH 7.4, 25° C., 0.002 units enzyme
[8] = 50 μM nucleoside, pH 7.4, 25° C., 0.2 units enzyme

SMILES | nucleotides detected (LC/MS) (PBM cells [1]) | species not detected (LC/MS) (PBM cells [1]) | EC50 (HIV-1/LAI; [3]) | EC90 (HIV-1/LAI; [4]) | EC50 (HIV-2/pROD10) | EC90 (HIV-2/pROD10) | EC50 (HBV) | EC90 (HBV) | also measured
COc1nc(N)nc2c1ncn2[C@H]1CC(N=[N+]=[N-])[C@@H](CO)O1 (stereo partly drawn) [Compound 70] | detection of RFS-506-DP, RFS-457-DP, and RFS-457-TP | No RFS-506, RFS-506-MP, or RFS-506-TP were detected |  |  |  |  |  |  | Deamination in 7 min (0.002 units Adenosine Deaminase) (adenosine deaminase; 50 μM, pH 7.4): 0.55 ± 5.8%; Deamination in 120 min (0.2 units Adenosine Deaminase) (adenosine deaminase; 50 μM, pH 7.4): 130.22 ± 4.72%
CN(C)c1nc(N)nc2c1ncn2[C@H]1CC(N=[N+]=[N-])[C@@H](CO)O1 (stereo partly drawn) [Compound 69] |  |  | 0.21 µM | 1.05 µM | 2.5 µM | 5.9 µM | > 10 µM | > 10 µM | Conversion by / stability to adenosine deaminase (adenosine deaminase): stable to adenosine deaminase
CCOC(=O)[C@H](C)NP(=O)(OC[C@H]1O[C@@H](n2cnc3c(Cl)nc(N)nc32)CC1N=[N+]=[N-])Oc1ccccc1 (stereo partly drawn) [RS-784] |  |  |  |  |  |  |  |  | EC50 (HIV-1/LAI; Human immunodeficiency virus 1, PBMC, Tables 2-4, n = 3 for the MP prodrugs, read-out: HIV EC50): 0.035 µM; EC90 (HIV-1/LAI; Human immunodeficiency virus 1, PBMC, Tables 2-4, n = 3 for the MP prodrugs, read-out: HIV EC90): 0.1 µM; IC50 (PBM cells [2]; Homo sapiens, PBMC, Tables 2-4, read-out: PBM IC50): 11.6 µM; IC50 (CEM cells; Homo sapiens, CCRF-CEM, Tables 2-4, read-out: CEM IC50): 13.5 µM; IC50 (Vero cells; [5]): > 100 µM
C[C@@]1(O)[C@H](O)[C@@H](CO)O[C@H]1n1ccc(N)nc1=O [2′-Me—C, reference compound] |  |  |  |  |  |  |  |  | EC50 (HCV Replicon RNA): 1.3 µM; EC90 (HCV Replicon RNA): 5.4 µM; IC50 (PBM cells [2]; Table 5, read-out: Toxicity IC50 PBM): 29.4 µM; IC50 (CEM cells; Table 5, read-out: Toxicity IC50 CEM): 24.5 µM; IC50 (Vero cells; [6]): > 100 µM
[N-]=[N+]=NC1C[C@H](n2cnc3c(NC4CC4)nc(N)nc32)O[C@@H]1CO (stereo partly drawn) [Compound 72] | detection of RFS-457-DP and RFS-457-TP | No RFS-512, RFS-512-MP, RFS-512-DP, or RFS-512-TP were detected | 1.5 µM | 8.8 µM | 3.1 µM | 15.8 µM | > 10 µM | > 10 µM | Deamination in 7 min (0.002 units Adenosine Deaminase) (adenosine deaminase; 50 μM, pH 7.4): 0.56%; Deamination in 120 min (0.2 units Adenosine Deaminase) (adenosine deaminase; 50 μM, pH 7.4): 33.40%
CCOC(=O)[C@H](C)NP(=O)(OC[C@H]1O[C@@H](n2cnc3c(N)nc(N)nc32)CC1N=[N+]=[N-])Oc1ccccc1 (stereo partly drawn) [RS-783] |  |  |  |  |  |  |  |  | EC50 (HIV-1/LAI; Tables 2-4, n = 3 for the MP prodrugs, read-out: HIV EC50): 0.0034 µM; EC90 (HIV-1/LAI; Tables 2-4, n = 3 for the MP prodrugs, read-out: HIV EC90): 0.035 µM; IC50 (PBM cells [2]; Tables 2-4, read-out: PBM IC50): 9.6 µM; IC50 (CEM cells; Tables 2-4, read-out: CEM IC50): 12.1 µM; IC50 (Vero cells; [5]): > 100 µM
C=CCNc1nc(N)nc2c1ncn2[C@H]1CC(N=[N+]=[N-])[C@@H](CO)O1 (stereo partly drawn) [Compound 62, 2-Amino-9-(3′-azido-2′,3′-dideoxy-β-D-erythro-pentofuranosyl)-6-allylamino-9H-purine] | detection of RFS-457-DP and RFS-457-TP | No RFS-427, RFS-427-MP, RFS-427-DP, or RFS-427-TP were detected | 0.5 µM | 4.3 µM | 0.71 µM | 7.4 µM | > 10 µM | > 10 µM | Deamination in 120 min (0.2 units Adenosine Deaminase) (adenosine deaminase; 50 μM, pH 7.4): 7.60%
C=CCN(C)c1nc(N)nc2c1ncn2[C@H]1CC(N=[N+]=[N-])[C@@H](CO)O1 (stereo partly drawn) [Compound 63, 2-Amino-9-(3′-azido-2′,3′-dideoxy-β-D-erythro-pentofuranosyl)-6-N-methylallylamino-9H-purine] | detection of RFS-457-TP | No RFS-464, RFS-464-MP, RFS-464-DP, or RFS-464-TP were detected | 0.4 µM | 1.5 µM | 2.4 µM | 6.1 µM | > 10 µM | > 10 µM | 
COCCNc1nc(N)nc2c1ncn2[C@H]1CC(N=[N+]=[N-])[C@@H](CO)O1 (stereo partly drawn) [Compound 74] |  |  | 2.1 µM | 16.2 µM |  |  |  |  | 
[N-]=[N+]=NC1C[C@H](n2cnc3c(N)nc(N)nc32)O[C@@H]1CO (stereo partly drawn) [Compound 73, β-D-3′-azido-2,6-diamino-2′,3′-dideoxypurine] | detection of RFS-457, RFS-457-MP, RFS-457-DP, RFS-457-TP RFS-667-DP, and RFS-667-TP | No RFS-667 or RFS-667-MP were detected |  |  |  |  |  |  | major metabolite (PBM cells [1]): RFS-457-TP as the major metabolite
CC(CO)Nc1nc(N)nc2c1ncn2[C@H]1CC(N=[N+]=[N-])[C@@H](CO)O1 (stereo partly drawn) [Compound 67] |  |  | 59.9 µM | > 10 µM | 51.6 µM | > 100 µM | > 10 µM | > 10 µM | 
Nc1ncnc2c1ncn2[C@H]1C[C@H](O)[C@@H](CO)O1 [2Õ-deoxy- adenosine, Deoxyadenosine, reference compound] |  |  |  |  |  |  |  |  | Deamination in 7 min (0.002 units Adenosine Deaminase) (adenosine deaminase; [7]): 59.30%; Deamination in 7 min (0.002 units Adenosine Deaminase) (adenosine deaminase; 50 μM nucleoside, pH 7.4, 25° C., 0.002 units enzyme, listed as Deoxyadenosine): 59%; Deamination in 120 min (0.2 units Adenosine Deaminase) (adenosine deaminase; [8]): 105.50%
CC(C)(CO)Nc1nc(N)nc2c1ncn2[C@H]1CC(N=[N+]=[N-])[C@@H](CO)O1 (stereo partly drawn) [Compound 65, 2-Amino-9-(3′-azido-2′,3′-dideoxy-β-D-erythro-pentofuranosyl)-6-N-2-methyl-2-amino-propanol-9H-purine] |  |  | 52.5 µM | > 10 µM | > 100 µM | > 100 µM | > 10 µM | > 10 µM | 
Nc1nc2c(ncn2COCCO)c(=O)[nH]1 [ACV, reference compound] |  |  |  |  |  |  |  |  | EC50 (HSV-1): 0.16 µM; EC90 (HSV-1): 0.42 µM; IC50 (Vero cells; [6]): > 100 µM
[N-]=[N+]=NC1C[C@H](n2cnc3c(NCCCCCO)nc(N)nc32)O[C@@H]1CO (stereo partly drawn) [Compound 64, 2-Amino-9-(3′-azido-2′,3′-dideoxy-β-D-erythro-pentofuranosyl)-6-aminopentanol-9H-purine] |  |  |  |  | > 100 µM | > 100 µM | > 10 µM | > 10 µM | EC50 (HIV-1/LAI; Human immunodeficiency virus 1, PBMC, read-out: HIV-1/LAI (PBM) EC50, PBM cells): 86.5 µM; EC90 (HIV-1/LAI; Human immunodeficiency virus 1, PBMC, read-out: HIV-1/LAI (PBM) EC90, PBM cells): > 10 µM
Nc1nc(O)c2ncn([C@H]3C[C@H](O)[C@@H](CO)O3)c2n1 [2Õ-deoxy- guanosine, Deoxyguanosine, reference compound] |  |  |  |  |  |  |  |  | Deamination in 7 min (0.002 units Adenosine Deaminase) (adenosine deaminase; [7]): below level of detection; Deamination in 120 min (0.2 units Adenosine Deaminase) (adenosine deaminase; [8]): below level of detection
